Earlier results, collected in patent publication US20070218480A1, “DETECTION AND DIAGNOSIS OF SMOKING RELATED CANCERS” (THE BOARD OF REGENTS OF THE UNIVERSITY OF TEXAS SYSTEM, priority 2006, published 2007).
Like-named read-outs stand apart in the source and are kept apart here.

What was measured:
[1] = mice
[2] = stored at in a dry, airtight, light-resistant environment

COc1cc2ncnc(Nc3ccc(F)c(Cl)c3)c2cc1OCCCN1CCOCC1 [gefitinib]
objective response (OR) (NSCLC patients; HER2 FISH-negative (no or low gain) NSCLC patients treated with gefitinib): 6.4% | disease control rate (DCR) (NSCLC patients; HER2 FISH-negative patients): 33.3% | overall survival (OS) (NSCLC patients; HER2 FISH-negative patients): 8.4 months | time to progression (TTP) (NSCLC patients; HER2 FISH-negative patients): 2.7 months | objective response (OR) (NSCLC patients; HER2 FISH-positive (high copy number) NSCLC patients treated with gefitinib): 34.8% | disease control rate (DCR) (NSCLC patients; HER2 FISH-positive patients): 56.5% | overall survival (OS) (NSCLC patients; HER2 FISH-positive patients): 20.8 months | time to progression (TTP) (NSCLC patients; HER2 FISH-positive patients): 9.05 months

Bleomycin
tissue distribution [1]: high concentrations of bleomycin are found in the skin, lungs, kidneys, peritoneum, and lymphatics

CC[C@@]1(O)C(=O)OCc2c1cc1n(c2=O)Cc2cc3ccccc3nc2-1 [Camptothecin]
storage stability [2]: at least two
